We go through seven compounds from patent US20240101664A1, “TREATMENT OF PERITONEAL, PLEURAL, AND PERICARDIUM ADHESIONS” (UTI LIMITED PARTNERSHIP, priority 2020, published 2024).

Assay [1] has as its system peritoneal cavity macrophages. As to the kind of experiment: Aggregometry of isolated peritoneal macrophages. The format is cell-based, mouse. The conditions noted are these: 37° C., 400 rpm. How it is done: Macrophages were isolated by peritoneal lavage as described above with the use of 2 mM EDTA containing HBSS instead of PBS. Macrophages were centrifuged at 300 g for 5 min in a 50-ml polystyrene tube. The pellet (with approximately 100 μl of fluid remaining with 3×10^6 cells) was diluted in HBSS containing 2 mM Ca^2+ to a final volume of 400 μl. It was then transferred to a aggregometry cuvette, which was warmed to 37° C. and continuously stirred (400 rpm). Light transmission was recorded on a 700 Whole Blood/Optical Lumi-Aggregometer (Chrono-log) and was expressed in arbitrary units with buffer representing 100% transmission and washed macrophage suspension 0% transmission, respectively. Agonists and calcium were added to reach a Ca^2+ concentration of 4 mM total or 2 mM free calcium in a buffer containing 2 mM EDTA. The preparation of platelet aggregometry was performed as previously described (53). Washed platelets (50 μl with 5×10^5 platelets per microliter) were diluted into 110 μl of Tyrode-HEPES buffer containing 2 mM Ca^2+ and 100 μg/ml human fibrinogen. Agonists (ATP, thrombospondin) were added at the indicated concentrations to the continuously stirred platelet suspension. Murine neutrophils were isolated from the bone marrow of wild-type C57Bl/6, mice as previously described (46). Briefly, bone marrow was collected from the femurs and tibias of euthanized mice, and neutrophils were isolated using a discontinuous Percoll gradient consisting of a Percoll solution (9 ml of Percoll and 1 ml 10× of HBSS) diluted to 72%, 64%, and 52% in 1×HBSS. Following centrifugation, the neutrophil band was removed and washed in HBSS. Cell pellets were resuspended in HBSS containing either 2 mM Ca2^+ or EDTA. Aggregometry was performed as described above.

The test system of assay [2] is Gata6+ cavity macrophages. Put plainly: Open-pouch intravital microscopy: cavity macrophage recruitment/aggregation at transmesothelial laser injury. The conditions noted are these: for number of macrophages attaching/aggregating at the injury (normalized macrophage count): 30 min post transmesothelial laser injury, intraperitoneal treatment 20 min before. The format is in vivo, mouse. How it is done: The following neutralizing antibodies (versus isotype controls) and reagents were intraperitoneally tested for their effect on macrophage recruitment: anti-mouse CD18 (100 μg per mouse, GAME-46, BD Pharmingen)+anti-mouse CD29 (100 μg per mouse, HM β31-1, BD Pharmingen) versus isotype rat IgG1, κ (100 μg per mouse, BioXcell)+hamster IgG (100 μg per mouse, eBioscience); anti-mouse CD162 (100 μg per mouse, 4RA10, BD Pharmingen) versus isotype rat IgG1 (100 μg per mouse, eBioscience); anti-human CD9 (10 μg per mouse, ALB 6, Santa Cruz) versus isotype mouse IgG1 (BD Biosciences). Heparin (Sandoz) was diluted in sterile saline to reach final dose of 100-1000 U per mouse. Argatroban (Sigma-Aldrich) was dissolved in DMSO at 20 mg/ml and diluted with saline to reach a final concentration of 300 μg per mouse. Hirudin (Multiplate Hirudin Blood Tube, Roche) was dissolved in saline and injected intraperitoneally at a dose of 1 tube per mouse. Polyinosinic acid (poly(I)) and polycytidylic acid (poly(C)) were purchased as potassium salt (Sigma-Aldrich) and dissolved in double-distilled water according to manufacturer's instructions to 5 mg/ml and 20 mg/ml, respectively. Immediately before experiments, the poly(C) stock solution was diluted with double-distilled water to a final concentration of 5 mg/ml. Both poly(I) and poly(C) were then diluted with saline to reach a final dose of 250 μg per mouse. A total of […] Anti-mouse Marco antibody (ED31, Biorad MCA1849) versus rat IgG1 Isotype control (eBRG1, eBioscience 16-4301-85) was injected intraperitoneally in a total volume of 140 μl PBS per mouse. A volume of 100 μl anti-mouse thrombocyte depletion serum (Cedarlane, CLAD31440) versus normal rabbit serum (Cedarlane, CLSD403) was injected intra venously 24 hours before imaging.
Mice used for IVM were 8-10 weeks old weighted an average of 20 g. Mice in each experiment were of the same sex. If not specified otherwise, mice were generally treated pharmacologically or with neutralizing antibodies 20 min before imaging. Mice were anesthetized with a mixture of ketamine hydrochloride (200 mg/kg, Rogar/SBT) and xylazine hydrochloride (10 mg/kg, MTC Pharmaceuticals). After anesthesia, the tail vein was cannulated for administration of additional anesthetic, antibodies, or other reagents in certain experiments.
The pouch model IVM (FIG. 1) was prepared with the mouse in supine position. Thermal support was given with a heated stage to maintain 37° C. body temperature. The fur and skin above the ventral abdominal wall were aseptically cleaned with 70% ethanol and then removed. Care was taken not to open the peritoneal cavity. If the peritoneal cavity was accidentally opened, the mouse was immediately euthanized. Staining antibody or dye was intraperitoneally injected with a 28G needle in midline about 10 mm above the symphysis. After withdrawing the needle, a suture was placed to seal the hole caused by the injection. This suture was then used to immobilize a part of the peritoneum onto the coverslip. For this, the mouse was placed in a semi-prone position. Placing a cotton tip with slight top to bottom pressure helped to further increase imaging stability yet preserved a connection between the imaging pouch and peritoneal cavity so that peritoneal fluid movement was preserved. The closed pouch was prepared by applying more pressure on the cotton tip which allowed us to separate the pouch from the peritoneal cavity in terms of fluid movement. After IVM, all mice were immediately euthanized.
Images were exported as uncompressed .tif files and analyzed using ImageJ (55). Tracking was generally performed in an automated fashion using the TrackMate plugin (56). The cell shown in FIG. 1J was tracked manually. Cell counts and injury size was measured manually in ImageJ. Three-dimensional visualizations and volume quantifications were performed in Imaris software. […]

Assay [3] relates to macrophage disappearance reaction. Particulars: intraperitoneal administration; hypersensitivity reaction or Escherichia coli; cited from earlier work.
Assay [4] deals with cells isolated from abdominal cavity (peritoneal fluid sample). As to the kind of experiment: Aggregometry of human peritoneal fluid cells. The format is cell-based. Particulars: ATPgs 100 uM, CaCl 2 mM, Poly(I)/Poly(C) 2 mg/ml; phase contrast. The method, then: Cells were isolated from abdominal cavity by laparotomy or laparascopy, lavaged with 200 ml saline and stored on ice. The cell samples were transferred through 70 um filters into 50 ml falcon tubes and spun at 300 g for 5 min at 4 degree. The pellet was resuspended in HBSS without Ca and without Mg. For aggregometry cells were exposed to: EDTA final concentration 2 mM; ATPgs final concentration 100 uM; CaCl final concentration 2 mM; and Poly(I)/Poly(C) final concentration 2 mg/ml. The final volume of 100 uL was attained with HBSS. Cells from one patient were exposed to three different conditions: EDTA alone (negative control); ATP/Poly(C); ATP/Poly(I). Image with phase contrast was captured (FIG. 14).

In another assay the test system is peritoneal adhesions. As to the kind of experiment: Peritoneal-button injury model of post-surgical peritoneal adhesions. The class given is in vivo, mouse. How it is done:
(§1) For surgical procedures, mice were 8-12 weeks old with a body weight >20 g. Mice in each experiment were of the same sex. Mice were treated before surgery with poly(I), poly(C), liposomes, or diphtheria toxin as described above. Anesthesia was induced and maintained with isoflurane. Eye lubricant was topically applied and buprenorphine (0.1 mg/kg) was subcutaneously administered.
For the peritoneal button injuries, skin was incised in midline. The peritoneal cavity was accessed through midline laparotomy. Standardized lesions were induced as previously described (47). In brief, a small portion of the peritoneum was grasped and ligated at its base using 4-0 Prolene suture (Ethicon), creating a standardized peritoneal button. This was repeated for a total of four buttons, one in each quadrant. Finally, peritoneum and skin were sutured with 6-0 Prolene (Ethicon) running suture.
Prior to sacrifice, mice were anesthetized (10 mg/kg xylazine hydrochloride and 200 mg/kg ketamine hydrochloride). Laparotomies were performed in an inverted U-shape. Adhesion were scored based on their tensile strength and vascularization (Table 2) as previously described (51). The animal was subsequently euthanized and perfused with 2 mM EDTA and 4% PFA containing PBS. Peritoneal buttons/adhesions were excised and post-fixated in 4% PFA containing PBS for 2-4 hours. Tissue staining and clearing was performed as previously described (52). […] Then the biopsies were incubated with fluorescently conjugated monoclonal antibodies for 1-4 days at 4° C. on a rotation device. […] Signal was detected using external, non-descanned hybrid detectors. Second harmonic generation by collagen was recorded by tuning the detector to excitation wavelength divided by two ±20 nm. […]
Mouse peritoneal lavage was performed in anesthetized animals by injection and aspiration of three times 5 ml of sterile ice-cold PBS containing 2 mM EDTA into the peritoneal cavity and subsequent retrieval. […] Samples were run using BD FACS Canto flow cytometer and analyzed using FlowJo software (Tree Star). […]

Assay [5] concerns focal thermal lesions of liver. Put plainly: Focal thermal hepatic injury healing. The format is in vivo, mouse. The conditions noted are these: 7 d after injury. How it is done:
Intravital liver imaging was performed as previously described (45). Exposed tissues were visualized with a Leica SP8 DIVE inverted microscope equipped with 4 Tune, a tunable in vivo detection system and a multiphoton light path. All images shown here were acquired using a HC FLUOTAR L 25×/0.95 W objective with water as immersion medium and 2× digital zoom. Fluorescent moieties were excited with a tunable InSight ×3 ultrafast laser (Spectra-Physics) at 800-1000 nm. Signal was detected using external, extremely sensitive non-descanned hybrid detectors. Second harmonic generation by collagen was recorded by tuning the detector to excitation wavelength divided by two ±20 nm. Leica LAS X software was used to drive the microscope.
as §1
Focal thermal injury in the liver was performed as previously described (49). In brief, a mini-laparotomy was made just below the xyphoid to expose the liver. Three focal injuries were induced on the surface of the liver using the tip of a heated 30G needle mounted on an electrocautery device. […]

Assay [6] deals with focal thermal injury of the parietal peritoneum. As to the kind of experiment: Peritoneal focal thermal injury healing. The class given is in vivo, mouse. Particulars: 3 days after injury; wound area and mesothelial coverage; poly(C) control. How it is done: Abdominal-wall-flap IVM was used to visualize the mesothelium and epigastric blood vessels (FIG. 2A, FIG. 3, F-I). Mice were placed in supine position on heated stage to maintain 37° C. body temperature. The fur and skin above the ventral abdominal wall were removed and then aseptically cleaned with 70% ethanol. Staining antibodies (anti-mouse podoplanin and anti-mouse F4/80 as described above) were injected. After mice were incubated for 10 min on a heated stage, the peritoneum was incised with an inverted U-shaped incision ranging from directly below the xyphoid process to the inguinal ligament on both sides. This created a perfused flap of peritoneum and the rectus abdominis muscles. The flap was washed with 1 ml of PBS and placed directly on the glass coverslip of the heated stage for imaging of abdominal wall or epigastric blood vessels.
as §1
The peritoneal focal thermal injury was adapted from the focal thermal liver injury that was previously described (46). The skin was incised in midline. […]

Setting [7] is: intravital imaging following poly(I) administration.

Regarding `O=C(O)CN(CCN(CC(=O)O)CC(=O)O)CC(=O)O` [EDTA], the “macrophage aggregation in vitro” value in assay [1] is “inhibited”.

On to `Nc1ncnc2c1ncn2[C@@H]1O[C@H](COP(=O)(O)OP(=O)(O)OP(=O)(O)O)[C@@H](O)[C@H]1O` [adenosine triphosphate], for which, in assay [1], the “macrophage aggregation in vitro” value is listed as “accelerate macrophage aggregation”.

Take `CC1CNc2c(cccc2S(=O)(=O)N[C@@H](CCCNC(=N)N)C(=O)N2CC[C@@H](C)C[C@@H]2C(=O)O)C1` (some centres unmarked) [argatroban, Argatroban]: in assay [2], the “number of macrophages attaching/aggregating at the injury (normalized macrophage count)” value is given as “did not replicate this effect”.

In the case of Heparin, in assay [2], the “number of macrophages attaching/aggregating at the injury (normalized macrophage count)” value is recorded as “significantly reduced the number of attaching cells”. Further, in assay [3], the macrophage disappearance reaction result is recorded as “inhibit the macrophage disappearance reaction”.

As for Hirudin, the “number of macrophages attaching/aggregating at the injury (normalized macrophage count)” value in assay [2] is “did not replicate this effect”.

Take Polycytidylic acid [Poly(C)]: the “aggregates of human peritoneal fluid cells” value in assay [4] is reported as “large aggregate observed”.

Take Polyinosinic acid [poly(I)]: the “macrophage aggregation in vitro” value in assay [1] is listed as “prevent macrophage aggregation in vitro”. Further, in the assay on peritoneal adhesions (3 hours post-surgery, flow cytometry), the “reduction of cavity macrophage numbers in the peritoneal lavage after surgery” value is listed as “only partially inhibited”. In addition, in the assay with peritoneal adhesions (within 3 hours post-surgery), the “recruitment of cavity macrophage aggregates from the peritoneal fluid to the buttons” value is recorded as “could be reduced”. For the same compound, the “number and tenacity of peritoneal adhesions” value with peritoneal adhesions (within 7 days post-surgery) was “significantly reduced”. Further, the “aggregates of human peritoneal fluid cells” value in assay [4] is “no aggregates”. In addition, the “number of macrophages attaching/aggregating at the injury (normalized macrophage count)” value in assay [2] is listed as “significantly decreased macrophage aggregation”. In assay [2] (setting [7]), the “initial adhesion to the wound” value was “left relatively intact” and the “macrophage-macrophage aggregate formation over time” value was “significant decrease”. The “healing of focal thermal lesions of liver” value in assay [5] is “similarly affected”. The “healing of focal thermal injury of the parietal peritoneum” value in assay [6] is reported as “prolonged healing”.
